From USRE31731E, “Herbicidal 4-trifluoromethyl-4-nitrodiphenyl ethers” (priority 1978, dated 1984)

Assays:
Assay type in all cases: in vivo
rice = test: Crop tolerance, rice; settings: postemergence or on transplanted rice; 50% or less kill of crop at rates giving more than 50% kill of weeds
Experimental: (§1) The following test procedure is employed. Seeds of selected crops and weeds are planted in soil in flats. For preemergence tests, the flats are treated with the test compound immediately after the planting. For postemergence tests, the seeds are allowed to germinate, and after 2 weeks the flats are treated with the test compound. The compound to be evaluated is dissolved in acetone, diluted with water, and sprayed over the flats using a carrier volume equivalent to 50 gallons per acre at the rate of application (pounds per acre, lb/A.) specified in the tables. About 2 weeks after the application of the test compound, the state of growth of the plants is observed and the phytotoxic effect of the compound is evaluated. Table II gives the average percent control achieved by the test compounds in terms of the percent of the plants which are killed by the compounds.
(§2) Following the general test procedure of Example 73, diphenyl ethers are evaluated for significant tolerance (as shown by 50% or less kill of the test crop at levels of application which give more than 50% kill of many or all of the weeds of Example 73) towards some or all of the following common agronomic crops (not all compounds tested against all crops): alfalfa, snapbeans, corn, cotton, cucumbers, peanuts, rape, rice, safflower, soybeans, tomatoes, and wheat.

Monocots [1] = test: Herbicidal activity, preemergence, monocot weeds (Table II); settings: pre-emergence, 336 h, about 2 weeks, read-out: % control (percent of plants killed); for pest or weed control at 2241.7 g/ha: 2 lb./A.; for pest or weed control at 4483.4 g/ha: 4 lb./A.
Experimental: (§3) Using the procedure described below, diphenyl ethers were evaluated for control of the following weeds: […]
(§4) barnyardgrass (Echinochloa crusgalli) crabgrass (Digitaria spp.) nutsedge (Cyperus esculentus)
(§5) At 2 and 4 pounds per acre:
(§6) **Bermudagrass (Cynodon dactylon)
(§7) *downy brome (Bromus tectorum) foxtail (Setaria faberii)
(§8) Johnsongrass (Sorghum halepense) […]
(§9) quackgrass (Agropyron repens)
(§10) *ryegrass (Lolium perenne)
(§11) *yellow millet (Panicum miliaceum)
as §1

Dicots [2] = test: Herbicidal activity, preemergence, dicot weeds (Table II); settings: pre-emergence, 336 h, about 2 weeks, read-out: % control (percent of plants killed); for pest or weed control at 2241.7 g/ha: 2 lb./A.; for pest or weed control at 4483.4 g/ha: 4 lb./A.
Experimental: as §3
(§12) bindweed (Convolvulus arvensis) curly dock (Remex crispus) velvetleaf (Abutilon theophrasti) wild mustard (Brassica haber)
(§13) At 2 and 4 pounds per acre: […]
(§14) cocklebur (Xanthium pensylvanicum)
(§15) **coffeeweed (Sesbania macrocarpa)
(§16) *curly dock (Rumex crispus)
(§17) *lambsquarters (Chenopodium album) morningglory (Ipomoea purpurea)
(§18) *pigweed (Amaranthus retroflexus)
(§19) **ragweed (Ambrosia artemisiifolia)
(§20) *smartweed (Polygonum pensylvanicum)
(§21) **tomato (Lycopersicon esculentum)
(§22) *wild carrot (Daucus carota)
(§23) *wild mustard (Brassica haber)
as §1

Dicots [3] = test: Herbicidal activity, postemergence, dicot weeds (Table II); settings: post-emergence, 336 h, about 2 weeks, read-out: % control (percent of plants killed); for pest or weed control at 2241.7 g/ha: 2 lb./A.; for pest or weed control at 4483.4 g/ha: 4 lb./A.
Experimental: as §3, §12, §13, §14, §15, §16, §17, §18, §19, §20, §21, §22, §23, §1

Monocots [4] = test: Herbicidal activity, postemergence, monocot weeds (Table II); settings: post-emergence, 336 h, about 2 weeks, read-out: % control (percent of plants killed); for pest or weed control at 2241.7 g/ha: 2 lb./A.; for pest or weed control at 4483.4 g/ha: 4 lb./A.
Experimental: as §3, §4, §5, §6, §7, §8, §9, §10, §11, §1

peanuts = test: Crop tolerance, peanuts; settings: postemergence; 50% or less kill of crop at rates giving more than 50% kill of weeds
Experimental: as §1, §2

SMILES	Tolerance to rice (rice)	pest or weed control at 2241.7 g/ha (Monocots [1]) [%]	pest or weed control at 4483.4 g/ha (Monocots [1]) [%]	pest or weed control at 2241.7 g/ha (Dicots [2]) [%]	pest or weed control at 4483.4 g/ha (Dicots [2]) [%]	pest or weed control at 2241.7 g/ha (Dicots [3]) [%]	pest or weed control at 4483.4 g/ha (Dicots [3]) [%]	pest or weed control at 2241.7 g/ha (Monocots [4]) [%]	pest or weed control at 4483.4 g/ha (Monocots [4]) [%]	Tolerance to peanuts (peanuts)
CN(C)c1cc(Oc2ccc(C(F)(F)F)cc2Cl)ccc1[N+](=O)[O-] [Example 20, 2-chloro-α,α,α-trifluoro-p-tolyl-3-dimethylamino-4-nitrophenyl ether]	Tolerance	80	88	93	99	97	88	80	78	
O=[N+]([O-])c1ccc(Oc2ccc(C(F)(F)F)cc2Cl)cc1N1CCOCC1 [Example 28, 2-chloro-α,α,α-trifluoro-p-tolyl-3-morpholino-4-nitrophenyl ether]		79	74	79	95	100	99	73	73	
C#CCCOc1cc(Oc2ccc(C(F)(F)F)cc2Cl)ccc1[N+](=O)[O-] [Example 29]		66	74	84	73	100	100	97	79	
CC(=O)CCOc1cc(Oc2ccc(C(F)(F)F)cc2Cl)ccc1[N+](=O)[O-] [Example 31]		68	74	69	99	100	100	68	61	
CC(=O)C(C)Oc1cc(Oc2ccc(C(F)(F)F)cc2Cl)ccc1[N+](=O)[O-] (centres unmarked) [Example 32]		81	86	81	100	100	100	100	86	
CNC(=O)Oc1cc(Oc2ccc(C(F)(F)F)cc2Cl)ccc1[N+](=O)[O-] [Example 33]		79	53	74	99	100	98	65	32	
O=C(CCl)Nc1cc(Oc2ccc(C(F)(F)F)cc2Cl)ccc1[N+](=O)[O-] [Example 35, 2-chloro-α,α,α-trifluoro-p-tolyl-3-chloroacetamido-4-nitrophenyl ether]		60	40	72	40	80	98	63	45	
O=[N+]([O-])c1ccc(Oc2ccc(C(F)(F)F)cc2Cl)cc1Cl [Example 37, 2-chloro-α,α,α-trifluoro-p-tolyl-3-chloro-4-nitrophenyl ether]		100	99	100	100	100	100	100	92	Tolerance
O=[N+]([O-])c1ccc(Oc2ccc(C(F)(F)F)cc2Cl)cc1OCC1CO1 (centres unmarked) [Example 38]		62	47	68	86	58	98	51	43	
O=[N+]([O-])c1ccc(Oc2ccc(C(F)(F)F)cc2Cl)cc1OCC(O)CO (stereo not drawn) [Example 39, 2-chloro-α,α,α-trifluoro-p-tolyl-3-(2,3-dihydroxypropoxy)-4-nitrophenyl ether]		77	65	80	99	100	98	61	64	
CCCN(CCC)c1cc(Oc2ccc(C(F)(F)F)cc2Cl)ccc1[N+](=O)[O-] [Example 41]		84	60	62	96	94	95	56	71	
CS(=O)(=O)CCOc1cc(Oc2ccc(C(F)(F)F)cc2Cl)ccc1[N+](=O)[O-] [Example 42]		83	62	60	80	88	98	63	38	
CN(CCO)c1cc(Oc2ccc(C(F)(F)F)cc2Cl)ccc1[N+](=O)[O-] [Example 43]		99	0	100	48	80	47	61	2	
CNC(=O)Nc1cc(Oc2ccc(C(F)(F)F)cc2Cl)ccc1[N+](=O)[O-] [Example 44]		0	66	17	96	10	98	7	60	
CCSC(=O)Nc1cc(Oc2ccc(C(F)(F)F)cc2Cl)ccc1[N+](=O)[O-] [Example 45]		68	13	77	58	78	88	53	17	
CCSC(=O)N(C(=O)SCC)c1cc(Oc2ccc(C(F)(F)F)cc2Cl)ccc1[N+](=O)[O-] [Example 46]		34	0	87	20	4	30	0	0	
N#Cc1cc(Oc2ccc(C(F)(F)F)cc2Cl)ccc1[N+](=O)[O-] [Example 47, 2-Chloro-α,α,α-trifluoro-p-tolyl-3-cyano-4-nitrophenyl ether]		80	61	80	40	84	72	24	11	
CC(Oc1cc(Oc2ccc(C(F)(F)F)cc2Cl)ccc1[N+](=O)[O-])C(N)=O (stereo not drawn) [Example 51, 2-chloro-α,α,α-trifluoro-p-tolyl-3-(1-carbamoylethoxy)-4-nitrophenyl ether]		96	79	100	100	98	100	86	75	
CCN(C(=O)NC)c1cc(Oc2ccc(C(F)(F)F)cc2Cl)ccc1[N+](=O)[O-] [Example 55, 2-Chloro-α,α,α-trifluoro-p-tolyl-3-(3-methyl-1-ethylureido)-4-nitrophenyl ether]			91		73	96	95	31	69	
